# Test results published in patent US20020152479A1, “Car modulators: screening and treatment of hypercholesterolemia” (priority 2000, published 2002).
# Like-named read-outs stand apart in the source and are kept apart here. Where no end group is shown, it is not given here. rhodamine = not defined here
# Columns and labels:
# [1] = molecular target: T1, GST-CARα ligand binding domain fusion protein (Homo sapiens, UniProt Q14994); test: Peptide sensor fluorescence polarization assay, GST-CARα ligand binding domain with rhodamine-[…] (SRC-1 peptide)
# T1 construct: made in house; host or cells: E. coli
# T1 sequence (Q14994 76-348 isoform Q14994-2): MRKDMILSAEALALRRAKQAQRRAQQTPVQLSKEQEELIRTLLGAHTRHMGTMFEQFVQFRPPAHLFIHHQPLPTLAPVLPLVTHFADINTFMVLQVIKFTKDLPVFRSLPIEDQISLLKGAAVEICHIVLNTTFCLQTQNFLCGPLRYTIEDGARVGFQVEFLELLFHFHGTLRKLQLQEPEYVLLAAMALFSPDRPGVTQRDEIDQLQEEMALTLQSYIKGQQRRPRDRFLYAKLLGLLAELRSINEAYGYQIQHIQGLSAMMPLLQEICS
# Protocol: (§1) A portion of DNA encoding the ligand binding domain of CARα encoding amino acids 76 to 348 (GenBank Accession No. CAA83016) was subcloned into a glutathione S-transferase (GST) fusion protein expression vector (pGEX-2TK, Amersham-Pharmacia) to create a vector that encodes a fusion protein in which GST is fused to the amino terminus of the CAR ligand binding domain. The GST-CAR protein was expressed in E. coli and purified over a glutathione affinity column. The GST-CAR fusion protein was incubated with a rhodamine-labeled peptide derived from the receptor binding domain of the coactivator SRC-1, rhodamine-[…] (SEQ ID NO: 7) (see WO 99/27365). The fluorescence polarization was measured as described in WO 99/27365.
# (§2) Using the compounds set out in Table 1, a peptide sensor assay was carried out using the method of Example 3. Fusion proteins encoding the ligand binding domain of CARα (GST-CARα; see Example 3) and CARβ (GST-CARβ) were used in the assay. A portion of the DNA for the ligand binding domain of CARβ (GenBank Accession No. AF009327) encoding amino acids 86 to 358 was subcloned into a glutathione S-transferase (GST) fusion protein expression vector (pGEX-2TK, Amersham-Pharmacia) to create a vector that encodes a fusion protein in which GST is fused to the amino terminus of the CARβ ligand binding domain (GST-CARβ). The GST-CARβ was purified using glutathione affinity chromatography.
# (§3) The notation ND means not determined.
# [2] = molecular target: T2, GST-CARβ ligand binding domain fusion protein (Mus musculus, UniProt O35627); test: Peptide sensor fluorescence polarization assay, GST-CARβ ligand binding domain; settings: half-maximal concentration of stimulation of peptide sensor assay signal
# T2 construct: encoding amino acids 86 to 358 was subcloned; made in house
# T2 sequence (O35627 86-358): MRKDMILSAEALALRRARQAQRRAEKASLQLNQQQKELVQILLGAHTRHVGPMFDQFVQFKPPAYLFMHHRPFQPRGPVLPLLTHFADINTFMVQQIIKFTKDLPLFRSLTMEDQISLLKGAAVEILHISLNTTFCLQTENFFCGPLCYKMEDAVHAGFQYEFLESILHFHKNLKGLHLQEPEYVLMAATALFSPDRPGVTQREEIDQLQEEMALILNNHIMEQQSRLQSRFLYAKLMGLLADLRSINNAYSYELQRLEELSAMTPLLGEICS
# Protocol: as §1, §2, §3
# CARα = molecular target: T3, CARα (Homo sapiens, UniProt Q14994); format: cell-based
# T3 construct: expressed in transfected cells; host or cells: CV-1 cells
# T3 sequence (Q14994 1-348 isoform Q14994-2): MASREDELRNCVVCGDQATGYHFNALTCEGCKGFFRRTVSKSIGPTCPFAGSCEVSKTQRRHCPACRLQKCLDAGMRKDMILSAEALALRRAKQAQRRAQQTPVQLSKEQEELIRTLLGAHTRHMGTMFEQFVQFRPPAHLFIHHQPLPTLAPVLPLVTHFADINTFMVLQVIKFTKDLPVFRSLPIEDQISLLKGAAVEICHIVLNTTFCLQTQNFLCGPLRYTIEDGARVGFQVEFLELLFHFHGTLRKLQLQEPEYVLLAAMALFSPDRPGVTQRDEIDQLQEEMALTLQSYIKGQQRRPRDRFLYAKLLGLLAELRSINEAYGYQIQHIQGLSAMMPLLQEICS
# CARβ = molecular target: T4, CARβ (Mus musculus, UniProt O35627); format: cell-based
# T4 construct: expressed in transfected cells; host or cells: CV-1 cells
# T4 sequence (O35627 1-358): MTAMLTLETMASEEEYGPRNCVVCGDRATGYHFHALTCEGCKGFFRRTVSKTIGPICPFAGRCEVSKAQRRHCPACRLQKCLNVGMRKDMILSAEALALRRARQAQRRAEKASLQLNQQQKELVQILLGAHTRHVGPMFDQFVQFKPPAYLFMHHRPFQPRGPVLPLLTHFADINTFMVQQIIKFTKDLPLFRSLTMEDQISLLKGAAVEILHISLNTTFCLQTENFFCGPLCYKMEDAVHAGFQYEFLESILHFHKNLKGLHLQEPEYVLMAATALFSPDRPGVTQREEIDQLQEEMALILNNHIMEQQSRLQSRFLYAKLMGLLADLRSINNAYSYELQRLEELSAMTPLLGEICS
# CAR = test: RARE-luciferase reporter gene assay in CV-1 cells with increasing CAR expression plasmid (Example 4); format: cell-based; settings: 10 μM compound, 24 h
# [3] = Total plasma cholesterol after TCPOBOP in CAR wild-type, heterozygous and knockout mice; format: in vivo; settings: single i.p. 3 mg/kg, four days after dosing
# [4] = Lipoprotein particle composition (LDL/VLDL) by electrophoresis of plasma, wild-type and CAR knockout mice; format: in vivo; settings: single i.p. 3 mg/kg, four days after dosing
# [5] = Plasma cholesterol, HDL cholesterol and triglycerides in wild-type C57B1/6 mice; format: in vivo; settings: single i.p. 3 mg/kg, four days after dosing
# mouse CAR = molecular target: T5, mouse CAR (Mus musculus, UniProt O35627); settings: Tzameli et al. (2000); read-out: EC50, upregulation of CAR-mediated transcription; cited from earlier work
# T5 sequence (O35627 1-358): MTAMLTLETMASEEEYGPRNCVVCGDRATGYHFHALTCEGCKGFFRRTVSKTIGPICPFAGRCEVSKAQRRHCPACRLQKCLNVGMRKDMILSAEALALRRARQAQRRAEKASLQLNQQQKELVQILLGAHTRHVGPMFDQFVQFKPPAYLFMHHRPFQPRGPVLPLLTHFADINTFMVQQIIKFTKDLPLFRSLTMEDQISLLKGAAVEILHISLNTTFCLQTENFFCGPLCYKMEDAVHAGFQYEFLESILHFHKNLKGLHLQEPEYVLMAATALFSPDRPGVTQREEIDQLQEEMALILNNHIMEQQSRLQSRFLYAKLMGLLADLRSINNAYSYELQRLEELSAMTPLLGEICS
# CYP2B = settings: mouse, in vivo, ip, cited from earlier work
# [6] = molecular target: GST-CARβ ligand binding domain fusion protein (mouse, UniProt P08515 1-218 = GST; O35627 86-358); test: fluorescence polarization peptide sensor assay, with small-molecule agonists
# [7] = half-maximal concentration of stimulation of peptide sensor assay signal, read-out: GST-CARα EC50
molecule,measurement,setting,value
CCOC(=O)C(Nc1ccc(OCc2ccccc2)cc1)c1ccccc1 (centres unmarked) [Compound T0037566],EC50,[1]; [7],221 nM
same,EC50,[2],99.1 nM
same,"CMV-CARα, fold increase in normalized luciferase activity over DMSO control",CARα,1.96
same,"CMV-CARβ, fold increase in normalized luciferase activity over DMSO control",CARβ,2.14
C[C@]12CC[C@@H](O)C[C@@H]1CC[C@@H]1[C@@H]2CC[C@]2(C)C=CC[C@@H]12 [5α-androst-16-en-3α-ol],IC50,"[1]; in the presence of 5 μM 5β-pregnan-3,20-dione, read-out: IC50, decrease of fluorescence polarization seen with 5β-pregnan-3,20-dione",530 nM
"CC(=O)[C@H]1CC[C@H]2[C@@H]3CC[C@@H]4CC(=O)CC[C@]4(C)[C@H]3CC[C@]12C [5β-pregnan-3,20-dione]",EC50,[1],2500 nM
same,Fluorescence polarization between sensor peptide and GST-CAR,[1],increased
same,Transcription of the luciferase reporter gene (normalized luciferase activity),CAR,increased transcription
C[C@@]12CCC[C@H]1[C@@H]1CC[C@H]3C[C@H](O)CC[C@]3(C)[C@H]1CC2 [5α-androstane-3α-ol],Transcription of the luciferase reporter gene (normalized luciferase activity),CAR,decreased
CCN(CC)c1ccc(C2C3=C(CC(C)(C)CC3=O)OC3=C2C(=O)CC(C)(C)C3)c(OCc2ccc(Cl)cc2Cl)c1 [Compound T0438248],EC50,[1]; [7],5.25 nM
same,EC50,[2],65.4 nM
same,"CMV-CARα, fold increase in normalized luciferase activity over DMSO control",CARα,2.92
same,"CMV-CARβ, fold increase in normalized luciferase activity over DMSO control",CARβ,0.96
COc1ccc(C2CC(c3ccc(Cl)cc3)=NN2c2ccccc2Cl)c(OC)c1 (centres unmarked) [Compound T0318784],EC50,[1]; [7],91.2 nM
same,EC50,[2],96.7 nM
same,"CMV-CARα, fold increase in normalized luciferase activity over DMSO control",CARα,1.78
same,"CMV-CARβ, fold increase in normalized luciferase activity over DMSO control",CARβ,3.87
"Clc1cnc(Oc2ccc(Oc3ncc(Cl)cc3Cl)cc2)c(Cl)c1 [TCPOBOP, 1,4-bis[2-(3,5-dichloropyridyloxy)]benzene]",EC50,[2],60 nM
same,"Plasma cholesterol levels, CAR knockout mice",[3],no effect
same,"Reduction in total cholesterol, female heterozygous CAR mice (+/−)",[3],60%
same,"Total plasma cholesterol, mice with one functional CAR gene (+/−)",[3],decreased total plasma cholesterol
same,"Total plasma cholesterol, wild-type littermates (+/+)",[3],decreased total plasma cholesterol
same,"Plasma levels of LDL/VLDL, CAR deficient (knockout) mice",[4],unaffected
same,"Plasma levels of LDL/VLDL, wild-type mice",[4],significant reduction
same,Reduction in HDL,[5],40%
same,Reduction in total plasma cholesterol,[5],40%
same,Reduction in triglyceride levels,[5],15-30%
same,EC50,mouse CAR,20 nM
same,Duration of CYP2B expression induction,CYP2B; 3 mg/kg,over 20 weeks
same,Dose inducing half maximal expression of CYP2B,CYP2B,0.066 mg/kg
Clc1ccc(CSCc2cc(Sc3c(Cl)cccc3Cl)nc(-c3ccccn3)n2)cc1 [Compound T0434523],EC50,[1]; [7],79.7 nM
same,EC50,[2],52.2 nM
same,"CMV-CARα, fold increase in normalized luciferase activity over DMSO control",CARα,2.17
same,"CMV-CARβ, fold increase in normalized luciferase activity over DMSO control",CARβ,1.29
"rhodamine-ILRKLLQE (reading uncertain; also: printed as rhodamine-ILRKLLQE, Labeled 8-mer used as the fluorescence polarization sensor; also called sensor peptide)",binding result,[6],binds
